# Experimental data: patent US6703388B2, “Nitrogen-containing tricyclic compounds and drugs containing the same” (Eisai Co., Ltd., priority 1996, dated 2004)
# Where two headings read alike, the source gives them in different places.
# Key:
# human basophils = assay: Inhibition of mediator (histamine, peptide leukotriene) liberation from human basophils stimulated with mite antigen; format: cell-based; conditions: enzyme immunoassay
# Procedure: 6 ml of 6% dextran (for separating leukocytes, having a high molecular weight) was added to 20 ml of heparinized blood. After stirring well, the resulting mixture was allowed to stand at 37° C. for 30 min and thus erythrocytes were precipitated. The upper layer was taken up and phosphate buffered saline (D-PBS) was added thereto followed by centrifugation at 185 g for 8 minutes to give a crude leukocyte fraction. These cells were subjected to hypotonic hematolysis and then suspended in D-PBS(+) containing 0.1%-BSA. The resulting suspension was used in the subsequent experiment as the leukocyte fraction containing basophils. 0.4 ml of this cell suspension was preliminarily heated to 37° C. for 5 min and then 0.05 ml of a specimen solution was added thereto followed by a pretreatment at 37° C. for 15 min. Next, 0.05 ml of a mite antigen solution was added thereto to induce an antigen-antibody reaction. After 10 min, the reaction was ceased by ice-cooling. Then the reaction mixture was centrifuged at 185 g for 10 min and histamine and peptide leukotrienes in the resulting supernatant were determined by using enzyme immunoassay kits. From the results of the assay, the activities of the acridone derivatives of inhibiting the liberation of histamine and peptide leukotriene were determined.
# RBL-2H3 cells = assay: Inhibition of serotonin liberation from IgE-sensitized RBL-2H3 cells after antigen stimulation; format: cell-based, rat; conditions: [3H]-serotonin release, IgE-sensitized RBL-2H3 cells, antigen stimulation, read-out: IC50 (μM) in serotonin liberation from RBL-2H3 cells
# Text: IgE-sensitized RBL-2H3 cells (i.e., a cell line originating in rat cells) release and produce not only histamine and serotonin but also cytokines such as TNF α and prostaglandins which are inflammatory mediators after stimulation with IgE sepecific antibody. In this experimental system, inhibitory effects on various mediators release were examined by using serotonin as an indication.
# The cells were beforehand labeled with [^3H]-labeled serotonin and, at the same time, sensitized with the IgE antibody. After incubating with the compounds of the present invention, the cells were stimulated with the specific antigen. Then the inhibitory activity of each compound was calculated from the amount of the [^3H]-labeled serotonin thus liberated into the medium and the amount of [^3H]-labeled serotonin liberated when no compound of the present invention was added.
# [1] = histamine, read-out: IC50 (μM) in mediator liberation from human basophils: histamine
# [2] = peptide leukotriene, read-out: IC50 (μM) in mediator liberation from human basophils: leukotriene
SMILES,IC50 (human basophils; [1]),IC50 (human basophils; [2]),IC50 (RBL-2H3 cells; Rattus norvegicus),IC50 (RBL-2H3 cells)
Cc1ccc2c(c1C)N(CCCNCc1ccccc1O)c1ccccc1[S+]2[O-] (stereo not shown) [Example 23],10 to 30 µM,10 to 30 µM,2 µM,
Cc1ccc2c(c1C)N(CCCNCc1cccc(O)c1)c1ccccc1[S+]2[O-] (stereo not shown) [Example 24],10 to 30 µM,10 to 30 µM,3 µM,
Cc1ccc2c(c1C)N(CCCNCc1ccc(O)cc1)c1ccccc1[S+]2[O-] (stereo not shown) [Example 25],30 µM,10 to 30 µM,3 µM,
Cc1ccc2c(c1C)N(CCCNCc1cccc(C)c1O)c1ccccc1[S+]2[O-] (stereo not shown) [Example 26],< 10 µM,< 10 µM,2 µM,
COc1cccc(CNCCCN2c3ccccc3[S+]([O-])c3ccc(C)c(C)c32)c1O (stereo not shown) [Example 27],30 to 100 µM,10 to 30 µM,3 µM,
Cc1ccc2c(c1C)N(CCCNCc1cccc(OC(C)C)c1O)c1ccccc1[S+]2[O-] (stereo not shown) [Example 28],10 to 30 µM,3 µM,0.8 µM,
Cc1ccc2c(c1C)N(CCCNCc1cccc(Cl)c1O)c1ccccc1[S+]2[O-] (stereo not shown) [Example 29],10 to 30 µM,3 to 10 µM,0.8 µM,
Cc1ccc2c(c1C)N(CCCNCc1cccc(Br)c1O)c1ccccc1[S+]2[O-] (stereo not shown) [Example 30],3 to 10 µM,< 3 µM,2 µM,
Cc1ccc2c(c1C)N(CCCNCc1ccc(O)c(C(=O)O)c1)c1ccccc1[S+]2[O-] (stereo not shown) [Example 32],30 to 100 µM,10 to 30 µM,0.5 µM,
Cc1ccc2c(c1C)N(CCCNCc1cc(O)ccc1O)c1ccccc1[S+]2[O-] (stereo not shown) [Example 33],10 to 30 µM,10 µM,1 µM,
Cc1ccc2c(c1C)N(CCCNCc1cc(Cl)cc(Cl)c1O)c1ccccc1[S+]2[O-] (stereo not shown) [Example 34],3 to 10 µM,3 µM,2 µM,
COCc1cccc(CNCCCN2c3ccccc3[S+]([O-])c3ccc(C)c(C)c32)c1O (stereo not shown) [Example 35],3 µM,3 to 10 µM,1 µM,
Cc1ccc2c(c1C)N(CCCNCc1c(O)cccc1O)c1ccccc1[S+]2[O-] (stereo not shown) [Example 36],3 to 10 µM,3 to 10 µM,1 µM,
Cc1ccc2c(c1C)N(CCCNCc1c(O)ccc(C)c1O)c1ccccc1[S+]2[O-] (stereo not shown) [Example 37],10 to 30 µM,3 to 10 µM,2 µM,
COc1cc(C)c(O)c(CNCCCN2c3ccccc3[S+]([O-])c3ccc(C)c(C)c32)c1O (stereo not shown) [Example 39],10 to 30 µM,10 to 30 µM,2 µM,
Cc1ccc2c(c1C)N(CCCNCc1cccc(F)c1O)c1ccccc1[S+]2[O-] (stereo not shown) [Example 42],3 to 10 µM,< 3 µM,2 µM,
COCOc1ccccc1CNCCCN1c2ccccc2[S+]([O-])c2ccc(C)c(C)c21 (stereo not shown) [Example 44],10 to 30 µM,10 µM,1 µM,
COc1cccc(OC)c1CNCCCN1c2ccccc2[S+]([O-])c2ccc(C)c(C)c21 (stereo not shown) [Example 45],3 to 10 µM,3 µM,1 µM,
Cc1ccc2c(c1C)N(CCCNCc1ccccc1OCCO)c1ccccc1[S+]2[O-] (stereo not shown) [Example 46],10 to 30 µM,10 to 30 µM,0.5 µM,
COCOc1c(CNCCCN2c3ccccc3[S+]([O-])c3ccc(C)c(C)c32)cccc1OC(C)C (stereo not shown) [Example 47],3 to 10 µM,3 µM,0.5 µM,

SMILES,IC50 (human basophils; [1]),IC50 (human basophils; [2]),IC50 (RBL-2H3 cells; Rattus norvegicus),IC50 (RBL-2H3 cells)
COCOc1c(Cl)cccc1CNCCCN1c2ccccc2[S+]([O-])c2ccc(C)c(C)c21 (stereo not shown) [Example 48],3 to 10 µM,3 µM,0.3 µM,
Cc1ccc2c(c1C)N(CCCNCc1cccc(N(C)C)c1)c1ccccc1[S+]2[O-] (stereo not shown) [Example 49],10 µM,3 to 10 µM,2 µM,
Cc1ccc2c(c1C)N(CCCNCc1ccccc1N(C)C)c1ccccc1[S+]2[O-] (stereo not shown) [Example 50],30 µM,10 to 30 µM,2 µM,
Cc1ccc2c(c1C)N(CCCNCc1ccccc1N)c1ccccc1[S+]2[O-] (stereo not shown) [Example 51],10 to 30 µM,10 to 30 µM,2 µM,
Cc1ccc2c(c1C)N(CCCNCc1ccc3c(c1)OCCO3)c1ccccc1[S+]2[O-] (stereo not shown) [Example 53],30 to 100 µM,10 to 30 µM,0.8 µM,
Cc1ccc2c(c1C)N(CCCNCc1cccc3c1OCO3)c1ccccc1[S+]2[O-] (stereo not shown) [Example 54],10 µM,3 to 10 µM,1 µM,
Cc1ccc2c(c1C)N(CCCNCc1ccc(C#N)s1)c1ccccc1[S+]2[O-] (stereo not shown) [Example 58],10 to 30 µM,10 to 30 µM,2 µM,
Cc1ccc2c(c1C)N(CCCNCc1ccco1)c1ccccc1[S+]2[O-] (stereo not shown) [Example 62],10 µM,3 µM,3 µM,
COc1ccc(CNCCCN2c3ccccc3[S+]([O-])c3ccc(C)c(C)c32)o1 (stereo not shown) [Example 64],3 to 10 µM,3 µM,3 µM,
"CO/N=c1\c2ccccc2n(CCCN)c2c(C)c(C)ccc12 [Example 208, (E,Z)-3,4-Dimethyl-10-(3-aminopropyl)-9-acridoneoxime-O-methyl Ether]",,,,3 µM
Cc1ccc2c(=NO)c3ccccc3n(CCCN)c2c1C [Example 209],,,15 µM,
CCCON=c1c2ccccc2n(CCCN)c2c(C)c(C)ccc12 [Example 211],,,10 µM,
Cc1ccc2c(=NOCCc3ccccn3)c3ccccc3n(CCCN)c2c1C [Example 212],,,6 µM,
Cc1ccc2c(=NOCC(=O)O)c3ccccc3n(CCCN)c2c1C [Example 215],,,3 µM,
Cc1ccc2c(=NOCCC(=O)O)c3ccccc3n(CCCN)c2c1C [Example 216],,,3 µM,
Cc1ccc2c(=NOC(C)C(=O)O)c3ccccc3n(CCCN)c2c1C (stereo not shown) [Example 217],,,2 µM,
Cc1ccc2c(=NOCc3ccccn3)c3ccccc3n(CCCN)c2c1C [Example 220],,,6 µM,
Cc1ccc2c(=NOCCCC(=O)N(C)C)c3ccccc3n(CCCN)c2c1C [Example 222],,,10 µM,
Cc1ccc2c(=NOC(C)C)c3ccccc3n(CCCN)c2c1C [Example 223],,,10 µM,
Cc1ccc2c(=NO)c3ccccc3n(CCCNCc3ccccc3)c2c1C [Example 230],,,6 µM,

SMILES,IC50 (human basophils; [1]),IC50 (human basophils; [2]),IC50 (RBL-2H3 cells; Rattus norvegicus),IC50 (RBL-2H3 cells)
CCCON=c1c2ccccc2n(CCCNCc2ccccc2)c2c(C)c(C)ccc12 [Example 232],,,10 µM,
Cc1ccc2c(=NOCC(=O)O)c3ccccc3n(CCCNCc3ccccc3)c2c1C [Example 234],,,< 3 µM,
CCC(ON=c1c2ccccc2n(CCCNCc2ccccc2)c2c(C)c(C)ccc12)C(=O)O (stereo not shown) [Example 237],,,10 µM,
Cc1ccc2c(=NOCc3ccccn3)c3ccccc3n(CCCNCc3ccccc3)c2c1C [Example 240],,,5 µM,
Cc1ccc2c(=NOCCc3ccccn3)c3ccccc3n(CCCNCc3ccccc3)c2c1C [Example 241],,,4 µM,
Cc1ccc2c(=NOCCCC(=O)O)c3ccccc3n(CCCNCc3ccccc3)c2c1C [Example 242],,,6 µM,
Cc1ccc2c(=NOC(C)C)c3ccccc3n(CCCNCc3ccccc3)c2c1C [Example 243],,,6 µM,
Cc1ccc2c(=NOCCC(=O)N(C)C)c3ccccc3n(CCCNCc3ccccc3)c2c1C [Example 244],,,3 µM,
Cc1ccc2c(=NOCCC(=O)O)c3ccccc3n(CCCNCc3ccccc3O)c2c1C [Example 247],,,10 µM,
Cc1ccc2c(=NOCC(C)(C)C(=O)O)c3ccccc3n(CCCNCc3ccccc3)c2c1C [Example 248],,,10 µM,
Cc1ccccc1CNCCCn1c2ccccc2c(=NOCCC(=O)O)c2ccc(C)c(C)c21 [Example 249],,,10 µM,
Cc1ccc2c(=NOCCC(N)=O)c3ccccc3n(CCCNCc3ccccc3)c2c1C [Example 251],,,5 µM,
Cc1ccc2c(=NOC(C)C#N)c3ccccc3n(CCCNCc3ccccc3)c2c1C (stereo not shown) [Example 253],,,10 µM,
Cc1ccc2c(=NOCCC(=O)O)c3ccccc3n(CCCN(C)Cc3ccccc3)c2c1C [Example 254],,,12 µM,
CCON=c1c2ccccc2n(CCCNC(C)c2ccccc2)c2c(C)c(C)ccc12 (stereo not shown) [Example 255],,,8 µM,
Cc1ccc2c(c1C)N(CCCN)c1ccccc1N(C)C2=O [Example 257],,,12 µM,
Cc1ccc2c(c1C)N(CCCN)c1ccccc1C(=O)N2C [Example 258],,,6 µM,
Cc1ccc2c(c1C)N(CCCNCc1ccccc1)c1ccccc1N(C)C2=O [Example 259],,,4 µM,
Cc1ccc2c(c1C)N(CCCNCc1ccccc1)c1ccccc1C(=O)N2C [Example 260],,,6 µM,
COC(=O)Cc1cccc2c1[S+]([O-])c1ccc(C)c(C)c1N2CCCNCc1ccccc1 (stereo not shown) [Example 261],,,10 µM,
